Data published in patent US20250144067A1, “PERSONALIZED STARVATION THERAPY FOR CANCER” (Faeth Therapeutics, Inc., priority 2021, published 2025).
Where two headings read alike, the source gives them in different places.

Experiments:
[1] = test system: NCI-H292 lung cancer cells; experiment: FDA drug screening, complete media vs cholesterol-free media without statin (TABLE 1); format: cell-based, human
[2] = test system: NCI-H292 lung cancer cells; experiment: FDA drug screening, complete media vs cholesterol-free media with simvastatin (TABLE 2); format: cell-based, human
[3] = Complete minus Cholesterol-free, greater than 0 enhanced anti-cancer activity, about 0 neutral, below 0 antagonist
[4] = NCI-H292 cells, FDA drug library screen, cholesterol-free media without statin
[5] = NCI-H292 cells, FDA drug library screen, complete media
[6] = NCI-H292 cells, FDA library drug in cholesterol-free media with simvastatin 0.04 μM
[7] = complete media vs cholesterol-free media + simvastatin (0.04 μM), >0 enhanced anti-cancer activity, about 0 neutral, <0 antagonist
[8] = NCI-H292 cells, cholesterol-free media with simvastatin 0.04 μM, cell growth value in FDA drug screen
[9] = complete media minus cholesterol-free media + simvastatin, >0 enhanced anti-cancer activity, about 0 neutral, <0 antagonist
[10] = Complete minus Cholesterol-free, >0 enhanced anti-cancer activity, about 0 neutral, <0 antagonist
[11] = NCI-H292 cells, cholesterol-free media with simvastatin 0.04 μM, FDA drug library screen (TABLE 2)
[12] = NCI-H292 cells, complete media, FDA drug library screen (TABLE 2)
[13] = complete media minus cholesterol-free media + simvastatin (0.04 μM), >0 enhanced anti-cancer activity, about 0 neutral, <0 antagonist
[14] = NCI-H292 cells, cholesterol-free media without statin
[15] = complete vs cholesterol-free media, greater than 0 enhanced anti-cancer activity, about 0 neutral, below 0 antagonists
[16] = NCI-H292 cells, complete media, cell growth value in FDA drug screen
[17] = Complete minus Cholesterol-free, […]
[18] = NCI-H292 cells, FDA drug library screen, cholesterol-free media with simvastatin 0.04 μM
[19] = complete media vs cholesterol-free media + simvastatin (0.04 μM), […]
[20] = NCI-H292 cells, drug in complete media
[21] = Complete minus Cholesterol-free, greater than 0 enhanced anti-cancer activity, about 0 neutral, below 0 antagonists
[22] = NCI-H292 cells in cholesterol-free media without statin
[23] = NCI-H292 cells in complete media
[24] = NCI-H292 cells, cholesterol-free media without statin, FDA drug library screen
[25] = NCI-H292 cells, complete media, FDA drug library screen
[26] = NCI-H292 cells, drug in cholesterol-free media with simvastatin 0.04 μM
[27] = complete media minus cholesterol-free media + simvastatin, […]

## Deferoxamine (mesylate)
[1]; [3]
  Difference: −0.12
[1]; [4]
  Cholesterol-free: 0.9976
[1]; [5]
  Complete: 0.8739
[2]; [6]
  Cholesterol-free media + simvastatin (0.04 μM): 1.454
[2]; [7]
  Difference: −0.43

## Delavirdine (mesylate)
[1]; [3]
  Difference: −0.10
[1]; [4]
  Cholesterol-free: 1.071
[1]; [5]
  Complete: 0.9729
[2]; [8]
  Cholesterol-free media + simvastatin (0.04 μM): 0.9532
[2]; [9]
  Difference: 0.08

## Dexchlorpheniramine (maleate)
[1]; [10]
  Difference: −0.05
[2]; [11]
  Cholesterol-free media + simvastatin (0.04 μM): 0.9393
[2]; [12]
  Complete Media: 0.9459
[2]; [13]
  Difference: 0.01

## Diethylcarbamazine (citrate)
[1]; [14]
  Cholesterol-free: 1.324
[1]; NCI-H292 cells, complete media
  Complete: 0.9451
[1]; [15]
  Difference: −0.38
[2]; [8]
  Cholesterol-free media + simvastatin (0.04 μM): 0.703
[2]; [16]
  Complete Media: 0.7247
[2]; [9]
  Difference: 0.02

## Dihydroergocristine (mesylate)
[1]; [17]
  Difference: −0.17
[2]; [18]
  Cholesterol-free media + simvastatin (0.04 μM): 1.12
[2]; [5]
  Complete Media: 1.011
[2]; [19]
  Difference: −0.11

## Dihydroergotamine (mesylate)
[1]; [17]
  Difference: −0.20
[1]; [14]
  Cholesterol-free: 1.021
[1]; NCI-H292 cells, complete media
  Complete: 0.8213
[2]; [20]
  Complete Media: 0.9713
[2]; [19]
  Difference: −0.18

## Dimemorfan (phosphate)
[1]; [17]
  Difference: −0.08
[1]; [4]
  Cholesterol-free: 0.9351
[1]; [5]
  Complete: 0.8552
[2]; [11]
  Cholesterol-free media + simvastatin (0.04 μM): 0.9385
[2]; [12]
  Complete Media: 0.8687
[2]; complete media minus cholesterol-free media + simvastatin (0.04 μM), […]
  Difference: −0.07

## Dimenhydrinate
[1]; [14]
  Cholesterol-free: 1.237
[1]; NCI-H292 cells, complete media
  Complete: 0.8523
[1]; [15]
  Difference: −0.39
[2]; [8]
  Cholesterol-free media + simvastatin (0.04 μM): 0.8945
[2]; [16]
  Complete Media: 0.9753
[2]; [9]
  Difference: 0.08

## Disodium succinate
[1]
  Cholesterol-free: 1.636
  Complete: 0.8171
  Difference: −0.82
[2]
  Cholesterol-free media + simvastatin (0.04 μM): 1.636
  Complete Media: 1.676
  Difference: 0.04

## Doxazosin (mesylate)
[1]; [21]
  Difference: −0.61
[1]; [22]
  Cholesterol-free: 1.69
[1]; [23]
  Complete: 1.083
[2]; [6]
  Cholesterol-free media + simvastatin (0.04 μM): 1.325
[2]; NCI-H292 cells, FDA library drug in complete media
  Complete Media: 0.9839
[2]; [7]
  Difference: −0.34

## Doxylamine (succinate)
[1]; [10]
  Difference: −0.30
[1]; [14]
  Cholesterol-free: 1.101
[1]; NCI-H292 cells, complete media
  Complete: 0.8034
[2]; [8]
  Cholesterol-free media + simvastatin (0.04 μM): 1.024
[2]; [16]
  Complete Media: 1.092
[2]; [9]
  Difference: 0.07

## Econazole (nitrate)
[1]; [3]
  Difference: −0.13
[1]; [4]
  Cholesterol-free: 0.9667
[1]; [5]
  Complete: 0.8375
[2]; [18]
  Cholesterol-free media + simvastatin (0.04 μM): 0.1971
[2]; [9]
  Difference: 0.88

## Edoxaban (tosylate monohydrate)
[1]; [24]
  Cholesterol-free: 0.765
[1]; [25]
  Complete: 0.9385
[1]; complete vs cholesterol-free media, […]
  Difference: 0.17
[2]; [26]
  Cholesterol-free media + simvastatin (0.04 μM): 1.271
[2]; [20]
  Complete Media: 1.053
[2]; [19]
  Difference: −0.22

## Eliglustat (hemitartrate)
[1]; [17]
  Difference: −0.24
[1]; [14]
  Cholesterol-free: 0.8345
[1]; NCI-H292 cells, complete media
  Complete: 0.5954
[2]; [26]
  Cholesterol-free media + simvastatin (0.04 μM): 0.9268
[2]; [20]
  Complete Media: 0.7576
[2]; [19]
  Difference: −0.17

## Emamectin (Benzoate)
[1]; [17]
  Difference: 0.02
[1]; [24]
  Cholesterol-free: 0.001259
[1]; [25]
  Complete: 0.01673
[2]; [18]
  Cholesterol-free media + simvastatin (0.04 μM): 0.006354
[2]; [5]
  Complete Media: 0.4189
[2]; [27]
  Difference: 0.41

## Enalapril (maleate)
[1]; [14]
  Cholesterol-free: 1.397
[1]; [15]
  Difference: −0.34
[2]; [18]
  Cholesterol-free media + simvastatin (0.04 μM): 1.132
[2]; [5]
  Complete Media: 1.317
[2]; [9]
  Difference: 0.19

## Enasidenib (mesylate)
[1]; [17]
  Difference: −0.61
[1]; [22]
  Cholesterol-free: 1.538
[1]; [23]
  Complete: 0.9281
[2]; NCI-H292 cells, cholesterol-free media with simvastatin 0.04 μM, […]
  Cholesterol-free media + simvastatin (0.04 μM): 1.526
[2]; NCI-H292 cells, complete media, […]
  Complete Media: 1.616
[2]; [27]
  Difference: 0.09

## Eprosartan (mesylate)
[1]; [21]
  Difference: −0.55
[1]; [22]
  Cholesterol-free: 1.415
[1]; [23]
  Complete: 0.8697
[2]; [11]
  Cholesterol-free media + simvastatin (0.04 μM): 0.8775
[2]; [12]
  Complete Media: 0.8724
[2]; [13]
  Difference: −0.01

## Escitalopram (oxalate)
[1]; [10]
  Difference: −0.01
[1]; [24]
  Cholesterol-free: 1.284
[1]; [25]
  Complete: 1.269
[2]; [8]
  Cholesterol-free media + simvastatin (0.04 μM): 0.9976
[2]; [9]
  Difference: 0.04
